# Assay results reported in PubChem BioAssay (NCI).
#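 Five concentrations, 48 hours, 96-well plates. Abbreviation: GI50, concentration required for 50% inhibition of growth. TGI: total growth inhibition.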
# Columns and labels:
# Assay in all cases: DTP human tumour cell line panel, 48 h
# 786-0 renal = test system: 786-0 renal
# A498 renal = test system: A498 renal
# A549 NSCLC = test system: A549 NSCLC
# ACHN renal = test system: ACHN renal
# CAKI-1 renal = test system: CAKI-1 renal
# CCRF-CEM leukemia = test system: CCRF-CEM leukemia
# COLO 205 colon = test system: COLO 205 colon
# HCT-116 colon = test system: HCT-116 colon
# HCT-15 colon = test system: HCT-15 colon
# HOP-92 NSCLC = test system: HOP-92 NSCLC
# K-562 leukemia = test system: K-562 leukemia
# LOX IMVI melanoma = test system: LOX IMVI melanoma
# M14 melanoma = test system: M14 melanoma
# MALME-3M melanoma = test system: MALME-3M melanoma
# MCF7 breast = test system: MCF7 breast
# MOLT-4 leukemia = test system: MOLT-4 leukemia
# NCI-H226 lung = test system: NCI-H226 lung
# NCI-H460 lung = test system: NCI-H460 lung
# NCI/ADR-RES ovarian = test system: NCI/ADR-RES ovarian
# OVCAR-5 ovarian = test system: OVCAR-5 ovarian
# OVCAR-8 ovarian = test system: OVCAR-8 ovarian
# RPMI-8226 leukemia = test system: RPMI-8226 leukemia
# SF-268 CNS = test system: SF-268 CNS
# SF-295 CNS = test system: SF-295 CNS
# SF-539 CNS = test system: SF-539 CNS
# SK-MEL-2 melanoma = test system: SK-MEL-2 melanoma
# SK-MEL-28 melanoma = test system: SK-MEL-28 melanoma
# SN12C renal = test system: SN12C renal
# SR leukemia = test system: SR leukemia
# SW-620 colon = test system: SW-620 colon
# TK-10 renal = test system: TK-10 renal
# U251 CNS = test system: U251 CNS
# UACC-257 melanoma = test system: UACC-257 melanoma
# UACC-62 melanoma = test system: UACC-62 melanoma
# UO-31 renal = test system: UO-31 renal
# HL-60(TB) leukemia = test system: HL-60(TB) leukemia
# HT29 colon = test system: HT29 colon
# PC-3 prostate = test system: PC-3 prostate
# SK-OV-3 ovarian = test system: SK-OV-3 ovarian
# SNB-19 CNS = test system: SNB-19 CNS
compound,measurement,setting,value
COc1cc([C@@H]2c3cc4c(cc3[C@@H](Nc3ccc(C(=O)N[C@H]5CCc6cc(OC)c(OC)c(OC)c6-c6ccc(SC)c(=O)cc65)cc3)[C@H]3COC(=O)[C@H]23)OCO4)cc(OC)c1O,TGI,786-0 renal,19.7 µM
same,TGI,A498 renal,21.8 µM
same,TGI,A549 NSCLC,> 100 µM
same,TGI,ACHN renal,22.2 µM
same,TGI,CAKI-1 renal,13.4 µM
same,TGI,CCRF-CEM leukemia,16.1 µM
same,TGI,COLO 205 colon,12.7 µM
same,TGI,HCT-116 colon,> 100 µM
same,TGI,HCT-15 colon,> 100 µM
same,TGI,HOP-92 NSCLC,19.3 µM
same,TGI,K-562 leukemia,> 100 µM
same,TGI,LOX IMVI melanoma,> 100 µM
same,TGI,M14 melanoma,52.2 µM
same,TGI,MALME-3M melanoma,15.1 µM
same,TGI,MCF7 breast,83 µM
same,TGI,MOLT-4 leukemia,10.9 µM
same,TGI,NCI-H226 lung,> 100 µM
same,TGI,NCI-H460 lung,14.2 µM
same,TGI,NCI/ADR-RES ovarian,17.3 µM
same,TGI,OVCAR-5 ovarian,> 100 µM
same,TGI,OVCAR-8 ovarian,> 100 µM
same,TGI,RPMI-8226 leukemia,38.8 µM
same,TGI,SF-268 CNS,> 100 µM
same,TGI,SF-295 CNS,> 100 µM
same,TGI,SF-539 CNS,> 100 µM
same,TGI,SK-MEL-2 melanoma,15.1 µM
same,TGI,SK-MEL-28 melanoma,> 100 µM
same,TGI,SN12C renal,16.4 µM
same,TGI,SR leukemia,149 nM
same,TGI,SW-620 colon,49.1 µM
same,TGI,TK-10 renal,> 100 µM
same,TGI,U251 CNS,15.2 µM
same,TGI,UACC-257 melanoma,> 100 µM
same,TGI,UACC-62 melanoma,17.2 µM
same,TGI,UO-31 renal,86.4 µM
Cc1ccc(C)c(/C=C2\CN(C(=O)OC(C)(C)C)C/C(=C\c3cc(C)ccc3C)C2=O)c1,GI50,ACHN renal,3.07 µM
same,TGI,ACHN renal,> 100 µM
same,GI50,CAKI-1 renal,2890 nM
same,TGI,CAKI-1 renal,> 100 µM
same,GI50,CCRF-CEM leukemia,2490 nM
same,TGI,CCRF-CEM leukemia,> 100 µM
same,GI50,HCT-116 colon,1430 nM
same,TGI,HCT-116 colon,5.34 µM
same,GI50,HL-60(TB) leukemia,2520 nM
same,TGI,HL-60(TB) leukemia,> 100 µM
same,GI50,HT29 colon,3.26 µM
same,TGI,HT29 colon,> 100 µM
same,GI50,K-562 leukemia,2940 nM
same,TGI,K-562 leukemia,> 100 µM
same,GI50,M14 melanoma,2990 nM
same,TGI,M14 melanoma,> 100 µM
same,GI50,MCF7 breast,1940 nM
same,TGI,MCF7 breast,> 100 µM
same,GI50,MOLT-4 leukemia,2780 nM
same,TGI,MOLT-4 leukemia,> 100 µM
same,GI50,NCI/ADR-RES ovarian,3.48 µM
same,TGI,NCI/ADR-RES ovarian,> 100 µM
same,GI50,OVCAR-8 ovarian,3.56 µM
same,TGI,OVCAR-8 ovarian,> 100 µM
same,GI50,PC-3 prostate,2710 nM
same,TGI,PC-3 prostate,> 100 µM
same,GI50,SF-268 CNS,2760 nM
same,TGI,SF-268 CNS,> 100 µM
same,GI50,SK-OV-3 ovarian,> 100 µM
same,TGI,SK-OV-3 ovarian,> 100 µM
same,GI50,SNB-19 CNS,2680 nM
same,TGI,SNB-19 CNS,> 100 µM
same,GI50,SR leukemia,2530 nM
same,TGI,SR leukemia,> 100000 nM
